Measured values from patent US6190699A, “Method of incorporating proteins or peptides into a matrix and administration thereof through mucosa” (NZL Corporation, priority 1998, dated 2001).
Where two headings read alike, the source gives them in different places.

How the values were obtained:
diabetic rabbits = test: Blood glucose levels in alloxan-diabetic rabbits after intravenous or intranasal insulin; assay type: in vivo, Male New Zealand White rabbits; details: intravenous injection, 0.3 and 0.4 U/kg insulin, -30 to 300 minutes (FIG. 1)
rats = details: cited from earlier work
[1] = Serum insulin levels (radio immune assay) in diabetic rabbits; details: intravenous injection, 0.3 and 0.4 U/kg insulin, diabetic rabbits (FIG. 2)
Experimental: The animals used in this study were Male New Zealand White rabbits weighing approximately 2.5 kg. (Charles River Labs, Amherst, Mass.). The animals were housed individually in cages and given standard animal chow and water. All animals were treated according to the Guiding Principles for Laboratory Animal Care of the American Physiologic Society.
The animals were made diabetic by intravenously injecting 80 mg/kg of Alloxan suspended in isotonic saline solution into the animal. The animals' blood glucose levels were monitored every two to three hours for the first three days. When glucose levels reached 500 mg/dl during the first three days, insulin (0.15 U/kg) was administered.
Prior to the experiment, the animals were fasted for 16 hours. The animals were then anesthetized by intravenously administering 30 mg/kg sodium pentobarbital. Forty minutes following the initial dose of pentobarbital, a second dose (6 mg/kg) was administered to the animals. […]
The animals were placed into groups of 3 to 7 animals for each experiment. […] Blood glucose levels and serum insulin levels were measured for each experiment. […]
Following the blood glucose analysis, serum samples were obtained by centrifuging the blood samples collected at 3000 rpm for 10 minutes. […] Serum insulin levels were determined using radio immune assay kits. […]

insulin
blood glucose levels (diabetic rabbits): showed a fall in blood glucose levels | increase in concentration of insulin required intranasally to reach plasma glucose levels similar to parenteral administration (rats; intranasal vs parenteral): 10 fold | plasma glucose levels (rats; intravenous administration): decreased significantly | plasma glucose levels (rats; oral administration): only slightly decreased | serum insulin levels [1]: serum insulin levels increased as the blood glucose levels fell
